The results in this text go back to US20260193294A1, “POLYPEPTIDE INHIBITOR, AND PREPARATION METHOD THEREFOR AND USE THEREOF” (SHANGHAI HANSOH BIOMEDICAL CO., LTD., priority 2022, published 2026).

Where two headings read alike, the source gives them in different places.

The nature of data set [1]: Pharmacokinetic determination in beagle dogs (IV). As to conditions: male, dog, plasma, 0.2 mg/kg.
Procedure: (§2) Beagle dogs were used as test animals to study the pharmacokinetic behavior of the compounds of the examples in the rats (plasma) after IV administration.
(§3) 3 beagle dogs/group, male, from Yizheng Anlimao Biotechnology Co., Ltd.
(§4) The compounds of the examples were weighed and dissolved in this solution, vortexed, ultrasonicated for 5 min, and filtered through a 0.22 μm filter membrane to obtain colorless clear solutions with a concentration of 0.1 mg/mL.
(§5) 3 beagle dogs/group, male were fasted overnight and then respectively administered IV at a dose of 0.2 mg/kg and a volume of 2 mL/kg.
(§6) 1) Acetonitrile (200 μL) was added to the plasma sample (50 L) for precipitation, and the mixture was mixed and centrifuged at 4500 rpm for 15 min.
(§7) 2) The treated supernatant solution was taken and subjected to LC/MS/MS to analyze the concentrations of the test compounds. LC/MS/MS analysis instrument: AB Sciex Triple Quad 6500+.
(§8) Premier Peptide CSH C18 130A 1.7 μm 2.1*100 mm Column, mobile phase: liquid A: 5% acetonitrile aqueous solution (0.1% formic acid), and liquid B: an aqueous solution of 95% acetonitrile (0.1% formic acid) • Flow rate: 0.6 mL/min • Elution time: 0-2.0 min, the eluent was as follows:
(§9) The main pharmacokinetic parameters were calculated using WinNonlin 8.1.
Data set [2] is described as follows: Pharmacokinetic determination in rats (IV). As to conditions: male, Sprague-Dawley (SD), rat, plasma, 1 mg/kg.
Procedure: (§10) SD rats were used as test animals to study the pharmacokinetic behavior of the compounds of the examples in the rats (plasma) after oral or IV administration.
Preparation of intravenous drug: PBS
(§11) The compounds of the examples were weighed and dissolved in this solution, vortexed, ultrasonicated for 5 min, and filtered through a 0.22 μm filter membrane to obtain colorless clear solutions with a concentration of 0.2 mg/mL.
(§12) 3 SD rats/group, male were fasted overnight and then respectively administered IV at a dose of 1 mg/kg and a volume of 5 mL/kg.
(§13) • Before administration and at 0.083 h, 0.25 h, 0.5 h, 1.0 h, 2.0 h, 4.0 h, 6.0 h, 8.0 h, and 24.0 h after administration (IV), 0.2 mL of blood was collected from the jugular vein, placed in an EDTA-2K test tube, and centrifuged at 6000 rpm for 6 min at 4° C. to separate plasma, which was stored at −20° C.; and the rats were fed 4 h after administration.
(§14) 1) Acetonitrile (200 μL) was added to the plasma sample (50 μL) for precipitation, and the mixture was mixed and centrifuged at 4500 rpm for 15 min.
as §7
(§15) • Liquid phase conditions: Shimadzu LC-30AD pump • Chromatographic column: HALO 90A PFP 2.7 μm 2.1×30 mm, mobile phase: liquid A: 5% acetonitrile aqueous solution (0.1% formic acid), and liquid B: an aqueous solution of 95% acetonitrile (0.1% formic acid) • Flow rate: 0.6 mL/min • Elution time: 0-2.0 min, the eluent was as follows:
as §9
Data set [3] deals with T1, IL23R (Homo sapiens, UniProt Q5VWK5).
T1 construct: Tag2 (identity not disclosed); purchased PerkinElmer 64BDPIL23PEH
T1 sequence (Q5VWK5 24-355 limits assumed): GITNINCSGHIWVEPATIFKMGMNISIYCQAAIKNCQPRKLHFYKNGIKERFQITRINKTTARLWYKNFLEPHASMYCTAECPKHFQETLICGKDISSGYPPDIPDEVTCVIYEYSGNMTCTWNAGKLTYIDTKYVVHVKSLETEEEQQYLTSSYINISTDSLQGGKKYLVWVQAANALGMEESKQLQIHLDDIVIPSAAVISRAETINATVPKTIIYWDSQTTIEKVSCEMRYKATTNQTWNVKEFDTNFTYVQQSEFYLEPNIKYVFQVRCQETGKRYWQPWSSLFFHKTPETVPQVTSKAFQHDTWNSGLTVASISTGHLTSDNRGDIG
The data set can be described thus: Competing with IL23 for binding to IL23R (HTRF, IL23/IL23R binding assay kit). As to conditions: 2 hours incubation at room temperature. As to the method:
(§1) The compounds of the present disclosure were screened in IL23/IL23R BINDING ASSAY KITS (PerkinElmer Cat #64BDPIL23PEH). The screening of the compounds of the present disclosure was carried out by using a multi-well plate (suitable for HTRF determination). Generally, 2 μl of several compounds of the present disclosure and STANDARD SOLUTIONS in KIT were first respectively added to the wells of the multi-well plate. 4 μl of Tag1-IL23, 4 μl of Tag2-IL23R, and 10 μL of pre-mixed Anti-Tag1 Eu Cryptate Antibody and Anti-Tag2 d2 reagent were necessarily added to all the wells. The multi-well plate was protected from light by an opaque cover membrane, and the opaque cover membrane was then removed
as §1, with “removed after 2 hours of incubation at room temperature. The signal value was read by an HTRF-compatible detection instrument to detect IC50 value.” for “removed”
The inhibition rate was calculated as follows: […]
By using log (inhibitor) vs. response—Variable slope (four parameters) in Graphpad, the data of HTRF experiment results were subjected to non-linear regression fitting to fit a curve and obtain the IC50 value.

Data set [4] in a line: in vitro. It counts as in vitro ADME. The note with it: 37° C.; for half-life at 0.5 μM: in vitro half-life, read-out: t1/2 (converted); for remaining at 4 h, 0.5 µM: read-out: Residual ratio % at 4 h. As to the method: To study the stability of the compounds of the examples in the plasmas of mice, rats, dogs and humans.
Preparation of plasma: Animal or human whole blood was collected, then put into a test tube containing an anticoagulant, and centrifuged at 3500 rpm for 10 min, and the upper pale yellow plasma was collected; • working solution of 10 μM test compound: a stock solution was prepared with DMSO, and the working solution was prepared with 100 mM phosphate buffer; • working solution of 10 μM positive control: • procaine: 2.36 mg of procaine was weighed and diluted into a 10 mM stock solution with 1 mL of DMSO. 10 μL of the 10 mM stock solution was pipetted into 1 mL of 100 mM phosphate buffer, such that the final concentration was 100 μM; and • enalapril: 4.93 mg of enalapril was weighed and diluted into a 10 mM stock solution with 1 mL of DMSO; and 10 μL of the 10 mM stock solution was pipetted into 1 mL of 100 mM phosphate buffer, such that the final concentration was 100 μM.
In a 96-well plate, 285 μL of plasma and 15 μL of 10 μM compound (test compound, and positive control) were successively added and incubated at 37° C.
40 μL was taken at 0, 15, 30, 60, 90, and 120 min (sampling points could be fine-tuned), respectively, and 160 μL of an acetonitrile stop solution containing an internal standard was added.
After centrifugation (3500 rpm, 10 min), 50 μL of the supernatant was taken, diluted by adding 50 μL of DDH2O, and then injected for LC-MS/MS.
• Instrument: Shimadzu LC-20 AD • Chromatographic column: Phenomenex Gemiu® C18 (50*4.6 mm, 5 μm particle size) • Mobile phase: A: acetonitrile, B: 0.1% formic acid solution • Elution gradient: […]: 5% A→95% A, 2.0-2.1 min: […] • Flow rate: 0.8 mL/min • Run time: 5.0 min • Injection volume: 5 μL
• Instrument: API4000 liquid chromatography mass spectrometer, AB, US • Ion source: electrospray ionization source (ESI) • Drying gas: N2, temperature 500° C. • Electrospray voltage: 5500V • Detection mode: positive ion detection • Scan mode: multi reaction monitoring (MRM) mode • Scan time: 0.1 s
All calculations were carried out using Microsoft Excel. The peak area ratio was determined by an extracted ion chromatogram.
The residual percentage of the compound at each time point was calculated by the following equation: Residual percentage at t hours (%)=peak area ratio at t hours/peak area ratio at 0 hour×100%, in which the peak area ratio at t hr was the peak area ratio of the […] at t min; and • the slope value k was determined by linear regression on the natural logarithm of the curve of the residual percentage of the parent drug versus the incubation time.
In vitro half-life (in vitro t1/2) was determined by the slope value: […]

A short description of data set [5]: in vivo. As to conditions: male, Sprague-Dawley (SD), rat, iv, 1 mg/kg.
Procedure: as §10
Preparation of intravenous drug: PBS
as §11, §12, §13, §14, §7, §15, §9
A short description of data set [6]: in vivo. As to conditions: male, beagle, dog, iv, 0.2 mg/kg.
Procedure: as §2, §3, §4, §5, §6, §7, §8, §9

For the compound `CC(=O)NCCCC[C@@H]1NC(=O)[C@H](Cc2c[nH]c3c(C)cccc23)NC(=O)[C@H]([C@@H](C)O)NC(=O)[C@H](CC(N)=O)NC(=O)[C@@H](NC(C)=O)C(C)(C)SSC(C)(C)[C@@H](C(=O)N[C@@H](Cc2ccc(OCCN)cc2)C(=O)N[C@@H](Cc2ccc3ccccc3c2)C(=O)NC2(C(=O)N[C@@H](CCC(=O)O)C(=O)N[C@@H](CC(N)=O)C(=O)N[C@@H](Cc3cccnc3)C(=O)N(C)CCNC(=O)CCOCCOCC[N+](C)(C)CCNC(=O)COCCOCCNC(=O)COCCOCCNC(=O)CC[C@H](NC(=O)CCCCCCCCCCCCCCC(=O)O)C(=O)O)CCC(F)(F)CC2)NC1=O` [Example 1-16-1], in data set [1], the AUC(0-inf) – broadly, the area under the concentration-time curve extrapolated to infinity – came out at 76400 ng·h/mL; the exposure AUC(0-t) (in general, exposure summed from dosing to a finite time, without extrapolation to infinity) amounted to 68800 ng·h/mL; the C0 came to 2750 ng/mL; the MRT – broadly, a mean duration of stay, worked out from the concentration-time curve – was 66.9 h. The clearance (usually the rate of elimination divided by the concentration) in data set [1] is 0.04 mL/min/kg. For the same compound, in data set [2], the AUC(0-inf) is 47600 ng·h/mL, the AUC(0-t) turned out to be 46100 ng·h/mL, the C0 was determined as 12600 ng/mL and the MRT is 6.2 h. In data set [2], this compound returned a clearance of 0.35 mL/min/kg. Also, the IC50 (in general, the concentration that gives 50% inhibition) in data set [3] amounted to 2.73 nM. Also, in data set [4] (Dog plasma), the half-life at 0.5 μM was 3.15 days and the remaining at 4 h, 0.5 µM was found to be 90.5%. Besides, in data set [4] (Rat plasma), the half-life at 0.5 μM was 25.1 days and the remaining at 4 h, 0.5 µM turned out to be 104%. Moreover, in data set [4] (mouse, Mice plasma), the half-life at 0.5 μM was 83.6 days and the remaining at 4 h, 0.5 µM was found to be 104%. The compound also showed a half-life in data set [5] of 5 h. The compound further showed a half-life in data set [6] of 53.8 h.
